Like-named read-outs stand apart in the source and are kept apart here. Values belong to the compound of their own block, whether it stands above or below them.
Columns and labels:
[1] = target: T1, baculovirus-expressed ALK (Homo sapiens, UniProt Q9UM73); assay: ALK Kinase Assay (ELISA-type, time-resolved fluorescence); type: biochemical
T1 construct: host or cells: baculovirus expression system
Outline: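 Substrate coating: phospholipase C-γ, 10 μg/mL in TBS. Kinase step: 30 ng/ml ALK, 15 min, 37° C. Detection and analysis: Eu-N1 PT66 antibody, with IC50 fitted as a sigmoidal variable-slope dose-response curve.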

[2] = target: T2, c-Met (cytoplasmic domain) (Homo sapiens, UniProt P08581); assay: c-Met Kinase Assay (same methods as for ALK, with modifications); type: biochemical
T2 construct: 10 ng/mL c-Met (cytoplasmic domain, Invitrogen Corporation #PV3143); purchased Invitrogen Corporation PV3143
T2 sequence (P08581 956-1390 limits assumed): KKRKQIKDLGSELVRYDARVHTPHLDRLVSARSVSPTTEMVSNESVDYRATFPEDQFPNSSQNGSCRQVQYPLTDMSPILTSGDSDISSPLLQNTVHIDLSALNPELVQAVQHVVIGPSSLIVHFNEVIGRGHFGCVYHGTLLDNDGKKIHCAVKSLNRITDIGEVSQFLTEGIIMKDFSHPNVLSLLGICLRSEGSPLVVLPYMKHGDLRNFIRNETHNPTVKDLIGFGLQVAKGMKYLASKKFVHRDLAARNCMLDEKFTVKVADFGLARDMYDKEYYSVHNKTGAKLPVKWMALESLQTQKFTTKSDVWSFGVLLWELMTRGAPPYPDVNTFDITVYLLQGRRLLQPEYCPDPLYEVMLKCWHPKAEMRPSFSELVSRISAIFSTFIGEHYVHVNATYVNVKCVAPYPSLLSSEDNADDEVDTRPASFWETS
Outline: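 Wells were coated with 10 μg/mL phospholipase C-γ substrate in TBS, and reactions were started with 10 ng/mL c-Met cytoplasmic domain and run at 37° C for 15 minutes. Phosphorylated product was detected with Eu-N1-labeled PT66 antibody. IC50 values came from sigmoidal variable-slope fits of percent inhibition versus log compound concentration.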

[3] = 1 μM ATP (Km level), 30 ng/ml ALK, 37° C., 15 minutes, read-out: ALK Activity (ALK kinase inhibition, IC50 class)
[4] = 1 μM ATP (Km level), 10 ng/mL c-Met, read-out: cMet Activity (c-Met kinase inhibition, IC50 class)
[5] = 1 μM ATP (Km level), read-out: ALK Activity (ALK Kinase Inhibition, IC50)
[6] = 1 μM ATP (Km level), read-out: cMet Activity (c-Met Kinase Inhibition, IC50)
[7] = ALK kinase inhibition, 1 μM ATP, read-out: ALK Activity
[8] = c-Met kinase inhibition, 1 μM ATP, read-out: cMet Activity
[9] = ALK kinase inhibition, 1 μM ATP (Km level), read-out: ALK Activity
[10] = c-Met kinase inhibition, 1 μM ATP (Km level), read-out: cMet Activity

T1 sequence (Q9UM73 19-1620): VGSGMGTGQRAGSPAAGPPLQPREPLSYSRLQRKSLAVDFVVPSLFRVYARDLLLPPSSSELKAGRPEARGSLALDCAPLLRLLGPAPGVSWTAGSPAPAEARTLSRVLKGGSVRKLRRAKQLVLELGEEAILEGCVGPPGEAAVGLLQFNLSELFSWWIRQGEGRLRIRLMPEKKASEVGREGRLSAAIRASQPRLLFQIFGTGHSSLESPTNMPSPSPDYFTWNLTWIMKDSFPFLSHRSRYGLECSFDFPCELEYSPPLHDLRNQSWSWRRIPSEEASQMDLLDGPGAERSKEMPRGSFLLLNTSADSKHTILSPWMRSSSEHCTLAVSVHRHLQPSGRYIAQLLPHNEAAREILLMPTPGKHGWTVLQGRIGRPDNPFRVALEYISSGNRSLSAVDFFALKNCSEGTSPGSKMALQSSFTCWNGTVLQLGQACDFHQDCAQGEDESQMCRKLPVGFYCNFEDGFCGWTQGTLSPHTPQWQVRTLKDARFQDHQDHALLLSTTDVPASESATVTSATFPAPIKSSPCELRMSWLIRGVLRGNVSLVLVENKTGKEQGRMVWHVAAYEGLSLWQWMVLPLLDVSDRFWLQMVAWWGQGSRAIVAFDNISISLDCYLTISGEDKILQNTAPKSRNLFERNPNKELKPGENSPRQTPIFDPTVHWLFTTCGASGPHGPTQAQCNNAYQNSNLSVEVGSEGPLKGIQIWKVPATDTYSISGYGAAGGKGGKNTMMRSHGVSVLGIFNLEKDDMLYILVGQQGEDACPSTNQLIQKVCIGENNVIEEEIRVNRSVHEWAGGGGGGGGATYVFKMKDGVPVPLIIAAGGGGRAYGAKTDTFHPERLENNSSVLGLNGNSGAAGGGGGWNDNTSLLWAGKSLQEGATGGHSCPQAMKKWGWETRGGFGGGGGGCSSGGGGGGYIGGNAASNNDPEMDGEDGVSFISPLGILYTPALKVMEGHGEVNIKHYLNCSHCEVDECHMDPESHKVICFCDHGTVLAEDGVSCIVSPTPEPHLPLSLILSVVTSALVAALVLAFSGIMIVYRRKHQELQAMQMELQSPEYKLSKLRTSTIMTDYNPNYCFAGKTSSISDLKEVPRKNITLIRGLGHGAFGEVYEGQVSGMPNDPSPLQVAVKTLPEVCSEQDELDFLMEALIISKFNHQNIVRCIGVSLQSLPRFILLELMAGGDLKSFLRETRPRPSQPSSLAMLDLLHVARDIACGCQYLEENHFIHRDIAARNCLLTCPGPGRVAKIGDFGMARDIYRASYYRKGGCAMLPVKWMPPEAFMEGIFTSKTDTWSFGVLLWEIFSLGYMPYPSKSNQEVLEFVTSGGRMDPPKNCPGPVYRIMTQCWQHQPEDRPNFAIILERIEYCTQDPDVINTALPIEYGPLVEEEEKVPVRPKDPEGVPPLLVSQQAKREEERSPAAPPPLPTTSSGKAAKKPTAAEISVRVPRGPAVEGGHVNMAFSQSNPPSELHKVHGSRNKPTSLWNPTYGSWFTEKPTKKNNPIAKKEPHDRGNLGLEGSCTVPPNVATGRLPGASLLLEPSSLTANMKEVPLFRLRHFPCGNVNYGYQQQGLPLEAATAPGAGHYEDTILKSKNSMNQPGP

Compound: COCCN(C)C1CCc2ccc(Nc3ncc(Cl)c(N[C@H]4[C@@H](C(N)=O)[C@@H]5C=C[C@H]4C5)n3)c(OC)c2CC1 (single isomer, unassigned) [Example 700]
- IC50 [1, 5]: < 100 nM
- IC50 [2, 6]: > 10000 nM

Compound: CCN1CCc2ccc(Nc3ncc(Cl)c(N[C@@H]4CCCC[C@H]4NC(=O)N(C)C)n3)cc2CC1 [Example 447, 3-{(1R,2R)-2-[5-Chloro-2-(3-ethyl-2,3,4,5-tetrahydro-1H-benzo[d]azepin-7-ylamino)-pyrimidin-4-ylamino]-cyclohexyl}-1,1-dimethyl-urea]
- IC50 [1, 9]: 100 to 1000 nM
- IC50 [2, 10]: 100 to 1000 nM

Compound: CCN1CCN(CC)c2cc(Nc3ncc(Cl)c(Nc4c(F)cccc4C(=O)NC)n3)ccc2C1 [Example 716, 2-[5-Chloro-2-(1,4-diethyl-2,3,4,5-tetrahydro-1H-1,4-benzodiazepin-8-ylamino)-pyrimidin-4-ylamino]-3-fluoro-N-methyl-benzamide]
- IC50 [1, 5]: < 100 nM
- IC50 [2, 6]: < 100 nM

Compound: COCCN1CCN(C)c2cc(Nc3ncc(Cl)c(NC4C5CCC(C5)C4C(N)=O)n3)c(OC)cc2C1 (stereo not drawn) [Example 491, (2-exo,3-exo)-3-{5-Chloro-2-[7-methoxy-4-(2-methoxy-ethyl)-1-methyl-2,3,4,5-tetrahydro-1H-benzo[e][1,4]diazepin-8-ylamino]-pyrimidin-4-ylamino}-bicyclo[2.2.1]heptane-2-carboxylic acid amide]
- IC50 [1, 9]: < 100 nM
- IC50 [2, 10]: > 10000 nM

Compound: COc1ccc(Nc2nc(Nc3ccc4c(c3)CCC(O)CC4)ncc2Cl)c2c1CN(C)C2=O (stereo not drawn) [Example 938, 7-[5-Chloro-2-(7-hydroxy-6,7,8,9-tetrahydro-5H-benzocyclohepten-2-ylamino)-pyrimidin-4-ylamino]-4-methoxy-2-methyl-2,3-dihydro-isoindol-1-one]
- IC50 [1, 5]: 100 to 1000 nM
- IC50 [2, 6]: 1000 to 10000 nM

Compound: COCCN1CCc2ccc(Nc3ncc(Cl)c(N[C@@H]4CCCC[C@H]4NC(=O)C(F)(F)F)n3)cc2CC1 [Example 450, N-((1R,2R)-2-{5-Chloro-2-[3-(2-methoxy-ethyl)-2,3,4,5-tetrahydro-1H-benzo[d]azepin-7-ylamino]-pyrimidin-4-ylamino}-cyclohexyl)-2,2,2-trifluoro-acetamide]
- IC50 [1, 9]: < 100 nM
- IC50 [2, 10]: 100 to 1000 nM

Compound: COCCN1CCc2ccc(Nc3ncc(Cl)c(NC4C5C=CC(C5)C4C(N)=O)n3)cc2CC1 (stereo not drawn) [Example 310, (2-exo,3-exo)-3-{5-Chloro-2-[3-(2-methoxy-ethyl)-2,3,4,5-tetrahydro-1H-benzo[d]azepin-7-ylamino]-pyrimidin-4-ylamino}-bicyclo[2.2.1]hept-5-ene-2-carboxylic acid amide]
- IC50 [1, 9]: < 100 nM
- IC50 [2, 10]: 100 to 1000 nM

Compound: (1S,2S,3R,4R)-3-{5-Chloro-2-[7-(2,2-difluoro-ethylamino)-6,7,8,9-tetrahydro-5H-benzocyclohepten-2-ylamino]-pyrimidin-4-ylamino}-bicyclo[2.2.1]hept-5-ene-2-carboxylic acid amide [Example 677]
- IC50 [1, 5]: < 100 nM
- IC50 [2, 6]: > 10000 nM

Compound: 2-[5-Chloro-2-(1,4-dimethyl-5-oxo-2,3,4,5-tetrahydro-1H-benzo[e][1,4]diazepin-8-ylamino)-pyrimidin-4-ylamino]-N-methylbenzamide [Example 416]
- IC50 [1, 9]: < 100 nM
- IC50 [2, 10]: < 100 nM

Compound: COc1cc2c(cc1Nc1ncc(C(F)(F)F)c(N[C@H]3[C@@H](C(N)=O)[C@@H]4C=C[C@H]3C4)n1)CCN(CC(=O)N(C)C)CC2 [Example 933, (1S,2S,3R,4R)-3-[2-(3-Dimethylcarbamoylmethyl-8-methoxy-2,3,4,5-tetrahydro-1H-3-benzazepin-7-ylamino)-5-trifluoromethyl-pyrimidin-4-ylamino]-bicyclo[2.2.1]hept-5-ene-2-carboxylic acid amide]
- IC50 [1, 5]: < 100 nM
- IC50 [2, 6]: 1000 to 10000 nM

Further lines, results first:

- IC50 [1, 3]: > 10000 nM
- IC50 [2, 4]: > 10000 nM
Compound: CCNC(=O)c1ccccc1Nc1nc(Nc2c(OC)ccc3c2CC(=O)N(CC)CC3)ncc1Cl [Example 1134, 2-[5-Chloro-2-(3-ethyl-7-methoxy-4-oxo-2,3,4,5-tetrahydro-1H-benzo[d]azepin-6-ylamino)-pyrimidin-4-ylamino]-N-ethyl-benzamide]

- IC50 [1, 3]: 100 to 1000 nM
- IC50 [2, 4]: 1000 to 10000 nM
Compound: O=C1CCCc2ccc(Nc3ncc(Cl)c(Nc4c(F)cccc4OC4CCOCC4)n3)cc2N1 [Example 1281, 8-{5-Chloro-4-[2-fluoro-6-(tetrahydro-pyran-4-yloxy)-phenylamino]-pyrimidin-2-ylamino}-1,3,4,5-tetrahydro-1-benzazepin-2-one]

- IC50 [1, 7]: 100 to 1000 nM
- IC50 [2, 8]: < 100 nM
Compound: CCN1C(=O)C(NC(C)=O)CC(C)(C)c2ccc(Nc3ncc(Cl)c(Nc4c(F)cccc4C(=O)NC)n3)cc21 (stereo not drawn) [Example 1643, 2-[2-(3-Acetylamino-1-ethyl-5,5-dimethyl-2-oxo-2,3,4,5-tetrahydro-1H-benzo[b]azepin-8-ylamino)-5-chloro-pyrimidin-4-ylamino]-3-fluoro-N-methyl-benzamide]

- IC50 [1, 7]: < 100 nM
- IC50 [2, 8]: > 10000 nM
Compound: COc1cc2c(cc1Nc1ncc(Cl)c(N[C@@H]3CCCC[C@H]3NS(C)(=O)=O)n1)CCOC(=O)N2C [Example 1503, N-{(1R,2R)-2-[5-Chloro-2-(3-methoxy-5-methyl-6-oxo-5,6,8,9-tetrahydro-7-oxa-5-aza-benzocyclohepten-2-ylamino)-pyrimidin-4-ylamino]-cyclohexyl}-methanesulfonamide]

- IC50 [1, 3]: 100 to 1000 nM
- IC50 [2, 4]: 1000 to 10000 nM
Compound: CCN1C(=O)CCCc2ccc(Nc3ncc(Cl)c(Nc4ccc(OCC#N)cc4)n3)cc21 [Example 1226, {4-[5-Chloro-2-(1-ethyl-2-oxo-2,3,4,5-tetrahydro-1H-1-benzazepin-8-ylamino)-pyrimidin-4-ylamino]-phenoxy}-acetonitrile]

- IC50 [1, 7]: < 100 nM
- IC50 [2, 8]: > 10000 nM
Compound: COc1cc2c(cc1Nc1ncc(Cl)c(NC3C4C=CC(C4)C3C(N)=O)n1)NC(=O)CN(Cc1ccccc1)C2 (stereo not drawn) [Example 1652, 3-[2-(4-Benzyl-7-methoxy-2-oxo-2,3,4,5-tetrahydro-1H-benzo[e][1,4]diaz-epin-8-ylamino)-5-chloro-pyrimidin-4-ylamino]-bicyclo[2.2.1]hept-5-ene-2-carboxylic acid amide]

- IC50 [1, 3]: < 100 nM
- IC50 [2, 4]: < 100 nM
Compound: CCNC(=O)c1cccc(F)c1Nc1nc(Nc2ccc3c(c2)CCN(CC(=O)N(C)C)CC3)ncc1Cl [Example 1367, 2-[5-Chloro-2-(3-dimethylcarbamoylmethyl-2,3,4,5-tetrahydro-1H-benzo[d]azepin-7-ylamino)-pyrimidin-4-ylamino]-N-ethyl-3-fluoro-benzamide]

- IC50 [1, 3]: 100 to 1000 nM
- IC50 [2, 4]: 1000 to 10000 nM
Compound: CN(CCC#N)c1cccc(F)c1Nc1nc(Nc2ccc3c(c2)C(C)(C)CCC(=O)N3)ncc1Cl [Example 1267, 3-({2-[5-Chloro-2-(5,5-dimethyl-2-oxo-2,3,4,5-tetrahydro-1H-1-benzazepin-7-ylamino)-pyrimidin-4-ylamino]-3-fluoro-phenyl}-methyl-amino)-propionitrile]

- IC50 [1, 3]: 100 to 1000 nM
- IC50 [2, 4]: 1000 to 10000 nM
Compound: CCN1C(=O)CCC(C)(C)c2ccc(Nc3ncc(Cl)c(Nc4c(F)cccc4N(C)CCC#N)n3)cc21 [Example 1264, 3-({2-[5-Chloro-2-(1-ethyl-5,5-dimethyl-2-oxo-2,3,4,5-tetrahydro-1H-1-benzazepin-8-ylamino)-pyrimidin-4-ylamino]-3-fluoro-phenyl}-methyl-amino)-propionitrile]

- IC50 [1, 3]: < 100 nM
- IC50 [2, 4]: < 100 nM
Compound: CNC(=O)c1ccccc1Nc1nc(Nc2ccc3c(c2)CNC(=O)CCN3)ncc1Cl [Example 1302, 2-[5-Chloro-2-(4-oxo-1,2,3,4,5,6-hexahydro-benzo[b][1,5]diazocin-8-ylamino)-pyrimidin-4-ylamino]-N-methyl-benzamide]

- IC50 [1, 3]: < 100 nM
- IC50 [2, 4]: 1000 to 10000 nM
Compound: CCCCNC(=O)c1ccccc1Nc1nc(Nc2ccc3c(c2)C(C)(C)CCC(=O)N3)ncc1Cl [Example 1027, N-Butyl-2-[5-chloro-2-(5,5-dimethyl-2-oxo-2,3,4,5-tetrahydro-1H-benzo[b]azepin-7-ylamino)-pyrimidin-4-ylamino]-benzamide]

- IC50 [1, 7]: < 100 nM
- IC50 [2, 8]: < 100 nM
Compound: CNC(=O)c1cccc(F)c1Nc1nc(Nc2ccc3c(c2)OCCCN3C(=O)OC2CCCN(C)C2)ncc1Cl (stereo not drawn) [Example 1438, 3-[5-Chloro-4-(2-fluoro-6-methylcarbamoyl-phenylamino)-pyrimidin-2-ylamino]-7,8-dihydro-6H-5-oxa-9-aza-benzocycloheptene-9-carboxylic acid 1-methyl-piperidin-3-yl ester]

- IC50 [1, 3]: < 100 nM
- IC50 [2, 4]: < 100 nM
Compound: CNC(=O)c1cc(F)cc(F)c1Nc1nc(Nc2ccc3c(c2)NC(=O)CCC3)ncc1Cl [Example 1278, 2-[5-Chloro-2-(2-oxo-2,3,4,5-tetrahydro-1H-1-benzazepin-8-ylamino)-pyrimidin-4-ylamino]-3,5-difluoro-N-methyl-benzamide]

- IC50 [1, 7]: > 10000 nM
- IC50 [2, 8]: > 10000 nM
Compound: CN1CCc2ccc(Nc3ncc(Cl)c(Nc4ccccc4-c4cc[nH]n4)n3)cc2CC1=O [Example 1825, 8-{5-Chloro-4-[2-(1H-pyrazol-3-yl)-phenylamino]-pyrimidin-2-ylamino}-3-methyl-1,3,4,5-tetrahydro-benzo[d]azepin-2-one]
